Experimental data: ChEMBL document CHEMBL6109103, “Dodecapeptides derived from human cathelicidin with potent activity against carbapenem-resistant Acinetobacter baumannii” (Eur J Med Chem, 2025)
In brackets after ≈: the same amount, converted by molar mass. Positions of bridges follow the written chain, without caps; N, C: chain ends. Non-standard residues stand in square brackets, D forms with d. Residues, ends and D or L forms follow the SMILES beside them. S5 = C=CCCC[C@](C)(N)C(=O)O

Columns and labels:
Assay type in all cases: functional
Staphylococcus aureus [1] = assay: Antibacterial activity against Methicillin-resistant Staphylococcus aureus ATCC 43300 assessed as inhibition of bacterial growth incubated for 24 hrs by broth dilution assay
Acinetobacter baumannii [2] = assay: Antibacterial activity against multidrug-resistant Acinetobacter baumannii assessed as inhibition of bacterial growth incubated for 24 hrs by broth dilution assay
Acinetobacter baumannii [3] = assay: Antibacterial activity against Acinetobacter baumannii ATCC 19606 assessed as inhibition of bacterial growth incubated for 24 hrs by broth dilution assay
Staphylococcus aureus [4] = assay: Antibacterial activity against Staphylococcus aureus […] assessed as inhibition of bacterial growth incubated for 24 hrs by broth dilution assay

| Molecule | MIC (Staphylococcus aureus [1]) | MIC (Acinetobacter baumannii [2]) | MIC (Acinetobacter baumannii [3]) | MIC (Staphylococcus aureus [4]) |
| --- | --- | --- | --- | --- |
| CC[C@H](C)[C@H](NC(=O)[C@H](CCCNC(=N)N)NC(=O)[C@@H](N)CCCCN)C(=O)N[C@H](C(=O)N[C@@H](CCCNC(=N)N)C(=O)N[C@@H](CCCNC(=N)N)C(=O)N[C@H](C(=O)N[C@@]1(C)CCC/C=C\CCC[C@@](C)(C(=O)O)NC(=O)[C@H](CC(C)C)NC(=O)[C@H](Cc2ccccc2)NC(=O)[C@H]([C@@H](C)CC)NC1=O)[C@@H](C)CC)C(C)C (H-KRIVRRI[S5]IFL[S5]-OH; staple (Z) 8-12) | 40 µg/mL (≈ 25.6 µM) | 10 µg/mL (≈ 6.39 µM) | 10 µg/mL (≈ 6.39 µM) | 80 µg/mL (≈ 51.1 µM) |
| CC[C@H](C)[C@@H]1NC(=O)[C@H](CCCCN)NC(=O)[C@@](C)(NC(=O)[C@H](CCCNC(=N)N)NC(=O)[C@H](CCCNC(=N)N)NC(=O)[C@@H](NC(=O)[C@@H](NC(=O)[C@H](CCCNC(=N)N)NC(=O)[C@@H](N)CCCCN)[C@@H](C)CC)C(C)C)CCC/C=C\CCC[C@@](C)(C(=O)N[C@@H](CCCNC(=N)N)C(=O)O)NC(=O)[C@H](Cc2ccccc2)NC1=O (H-KRIVRR[S5]KIF[S5]R-OH; staple (Z) 7-11) | > 320 µg/mL | > 320 µg/mL | > 320 µg/mL | > 320 µg/mL |
| CC[C@H](C)[C@H](NC(=O)[C@H](CCCNC(=N)N)NC(=O)[C@@H](N)CCCCN)C(=O)N[C@H](C(=O)N[C@@H](CCCNC(=N)N)C(=O)N[C@@]1(C)CCC/C=C/CCC[C@@](C)(C(=O)N[C@@H](CC(C)C)C(=O)N[C@@H](CCCNC(=N)N)C(=O)O)NC(=O)[C@H]([C@@H](C)CC)NC(=O)[C@H](CCCCN)NC(=O)[C@H]([C@@H](C)CC)NC1=O)C(C)C (H-KRIVR[S5]IKI[S5]LR-OH; staple (E) 6-10) | 80 µg/mL (≈ 51.8 µM) | 10 µg/mL (≈ 6.47 µM) | 10 µg/mL (≈ 6.47 µM) | 80 µg/mL (≈ 51.8 µM) |
| CC[C@H](C)[C@@H]1NC(=O)[C@H](CCCCN)NC(=O)[C@H]([C@@H](C)CC)NC(=O)[C@H](CCCNC(=N)N)NC(=O)[C@@](C)(NC(=O)[C@@H](NC(=O)[C@@H](NC(=O)[C@H](CCCNC(=N)N)NC(=O)[C@@H](N)CCCCN)[C@@H](C)CC)C(C)C)CCC/C=C\CCC[C@@](C)(C(=O)O)NC(=O)[C@H](CC(C)C)NC(=O)[C@H](Cc2ccccc2)NC1=O (H-KRIV[S5]RIKIFL[S5]-OH; staple (Z) 5-12) | 80 µg/mL (≈ 52.1 µM) | 40 µg/mL (≈ 26 µM) | 80 µg/mL (≈ 52.1 µM) | > 320 µg/mL |
| CC[C@H](C)[C@@H]1NC(=O)[C@H](CCCNC(=N)N)NC(=O)[C@@](C)(NC(=O)[C@@H](NC(=O)[C@@H](NC(=O)[C@H](CCCNC(=N)N)NC(=O)[C@@H](N)CCCCN)[C@@H](C)CC)C(C)C)CCC/C=C\CCC[C@@](C)(C(=O)N[C@@H](Cc2ccccc2)C(=O)N[C@@H](CC(C)C)C(=O)N[C@@H](CCCNC(=N)N)C(=O)O)NC(=O)[C@H](CCCCN)NC1=O (H-KRIV[S5]RIK[S5]FLR-OH; staple (Z) 5-9) | > 320 µg/mL | 40 µg/mL (≈ 25.3 µM) | 40 µg/mL (≈ 25.3 µM) | > 320 µg/mL |
| CC[C@H](C)[C@@H]1NC(=O)[C@H](CCCNC(=N)N)NC(=O)[C@H](CCCNC(=N)N)NC(=O)[C@@](C)(NC(=O)[C@@H](NC(=O)[C@H](CCCNC(=N)N)NC(=O)[C@@H](N)CCCCN)[C@@H](C)CC)CCC/C=C\CCC[C@@](C)(C(=O)N[C@@H](CCCNC(=N)N)C(=O)O)NC(=O)[C@H](Cc2ccccc2)NC(=O)[C@H]([C@@H](C)CC)NC(=O)[C@H](CCCCN)NC1=O (H-KRI[S5]RRIKIF[S5]R-OH; staple (Z) 4-11) | > 320 µg/mL | > 320 µg/mL | > 320 µg/mL | > 320 µg/mL |
| CC[C@H](C)[C@@H]1NC(=O)[C@H](CCCNC(=N)N)NC(=O)[C@H](CCCNC(=N)N)NC(=O)[C@H](C(C)C)NC(=O)[C@@](C)(NC(=O)[C@H](CCCNC(=N)N)NC(=O)[C@@H](N)CCCCN)CCC/C=C/CCC[C@@](C)(C(=O)N[C@@H](CC(C)C)C(=O)N[C@@H](CCCNC(=N)N)C(=O)O)NC(=O)[C@H]([C@@H](C)CC)NC(=O)[C@H](CCCCN)NC1=O (H-KR[S5]VRRIKI[S5]LR-OH; staple (E) 3-10) | 80 µg/mL (≈ 50.4 µM) | 10 µg/mL (≈ 6.3 µM) | 20 µg/mL (≈ 12.6 µM) | 80 µg/mL (≈ 50.4 µM) |
| CC[C@H](C)[C@H](NC(=O)[C@H](CCCCN)NC(=O)[C@]1(C)CCC/C=C\CCC[C@](C)(NC(=O)[C@H](CCCNC(=N)N)NC(=O)[C@@H](N)CCCCN)C(=O)N[C@@H](C(C)C)C(=O)N[C@@H](CCCNC(=N)N)C(=O)N[C@@H](CCCNC(=N)N)C(=O)N1)C(=O)N[C@@H](Cc1ccccc1)C(=O)N[C@@H](CC(C)C)C(=O)N[C@@H](CCCNC(=N)N)C(=O)O (H-KR[S5]VRR[S5]KIFLR-OH; staple (Z) 3-7) | 160 µg/mL (≈ 98.6 µM) | 40 µg/mL (≈ 24.7 µM) | 320 µg/mL (≈ 197 µM) | 160 µg/mL (≈ 98.6 µM) |
| CC[C@H](C)[C@@H]1NC(=O)[C@H](CCCNC(=N)N)NC(=O)[C@H](CCCNC(=N)N)NC(=O)[C@H](C(C)C)NC(=O)[C@H]([C@@H](C)CC)NC(=O)[C@@](C)(NC(=O)[C@@H](N)CCCCN)CCC/C=C\CCC[C@@](C)(C(=O)N[C@@H](Cc2ccccc2)C(=O)N[C@@H](CC(C)C)C(=O)N[C@@H](CCCNC(=N)N)C(=O)O)NC(=O)[C@H](CCCCN)NC1=O (H-K[S5]IVRRIK[S5]FLR-OH; staple (Z) 2-9) | > 320 µg/mL | 160 µg/mL (≈ 101 µM) | 320 µg/mL (≈ 203 µM) | > 320 µg/mL |
| CC[C@H](C)[C@H](NC(=O)[C@H](CCCCN)NC(=O)[C@@H](NC(=O)[C@]1(C)CCC/C=C\CCC[C@](C)(NC(=O)[C@@H](N)CCCCN)C(=O)N[C@@H]([C@@H](C)CC)C(=O)N[C@@H](C(C)C)C(=O)N[C@@H](CCCNC(=N)N)C(=O)N1)[C@@H](C)CC)C(=O)N[C@@H](Cc1ccccc1)C(=O)N[C@@H](CC(C)C)C(=O)N[C@@H](CCCNC(=N)N)C(=O)O (H-K[S5]IVR[S5]IKIFLR-OH; staple (Z) 2-6) | 320 µg/mL (≈ 208 µM) | 10 µg/mL (≈ 6.51 µM) | 10 µg/mL (≈ 6.51 µM) | 320 µg/mL (≈ 208 µM) |
| CC[C@H](C)[C@@H]1NC(=O)[C@H](CCCNC(=N)N)NC(=O)[C@@](C)(N)CCC/C=C\CCC[C@@](C)(C(=O)N[C@H](C(=O)N[C@@H](Cc2ccccc2)C(=O)N[C@@H](CC(C)C)C(=O)N[C@@H](CCCNC(=N)N)C(=O)O)[C@@H](C)CC)NC(=O)[C@H]([C@@H](C)CC)NC(=O)[C@H](CCCNC(=N)N)NC(=O)[C@H](CCCNC(=N)N)NC(=O)[C@H](C(C)C)NC1=O (H-[S5]RIVRRI[S5]IFLR-OH; staple (Z) 1-8) | 160 µg/mL (≈ 100 µM) | 40 µg/mL (≈ 25.1 µM) | 80 µg/mL (≈ 50.2 µM) | 320 µg/mL (≈ 201 µM) |
| CC[C@H](C)[C@H](NC(=O)[C@H](CCCCN)NC(=O)[C@@H](NC(=O)[C@H](CCCNC(=N)N)NC(=O)[C@]1(C)CCC/C=C/CCC[C@](C)(N)C(=O)N[C@@H](CCCNC(=N)N)C(=O)N[C@@H]([C@@H](C)CC)C(=O)N[C@@H](C(C)C)C(=O)N1)[C@@H](C)CC)C(=O)N[C@@H](Cc1ccccc1)C(=O)N[C@@H](CC(C)C)C(=O)N[C@@H](CCCNC(=N)N)C(=O)O (H-[S5]RIV[S5]RIKIFLR-OH; staple (E) 1-5) | 160 µg/mL (≈ 102 µM) | 10 µg/mL (≈ 6.39 µM) | 10 µg/mL (≈ 6.39 µM) | 160 µg/mL (≈ 102 µM) |
| CO/N=C(\C(=O)N[C@@H]1C(=O)N2C(C(=O)O)=C(COC(C)=O)CS[C@H]12)c1csc(N)n1 [CEFOTAXIME] | > 320 µg/mL | > 320 µg/mL | 20 µg/mL (≈ 43.9 µM) | 2.5 µg/mL (≈ 5.49 µM) |
| O=C(O)c1cn(C2CC2)c2cc(N3CCNCC3)c(F)cc2c1=O [CIPROFLOXACIN] | 160 µg/mL (≈ 483 µM) | 320 µg/mL (≈ 966 µM) | 2.5 µg/mL (≈ 7.54 µM) | 2.5 µg/mL (≈ 7.54 µM) |
| H-KRIVIRIKDFLR-OH | > 320 µg/mL | 80 µg/mL | 160 µg/mL | > 320 µg/mL |
| H-KRIVIRIKIFLR-OH | 80 µg/mL | 20 µg/mL | 20 µg/mL | 40 µg/mL |
| H-KRIVIRIKKFLR-OH | 320 µg/mL | 40 µg/mL | 80 µg/mL | 160 µg/mL |
| H-KRIVIRIKRFLR-OH | 80 µg/mL | 10 µg/mL | 20 µg/mL | 160 µg/mL |
| H-KRIVKRIKDFLR-OH | > 320 µg/mL | 80 µg/mL | 160 µg/mL | > 320 µg/mL |
| H-KRIVKRIKIFLR-OH | > 320 µg/mL | 10 µg/mL | 20 µg/mL | 80 µg/mL |
| H-KRIVKRIKKFLR-OH | 160 µg/mL | > 320 µg/mL | 160 µg/mL | > 320 µg/mL |
| H-KRIVKRIKRFLR-OH | > 320 µg/mL | 80 µg/mL | 80 µg/mL | > 320 µg/mL |
| H-KRIVQRIKIFLR-OH | > 320 µg/mL | 20 µg/mL | 40 µg/mL | 160 µg/mL |
| H-KRIVQRIKKFLR-OH | > 320 µg/mL | 20 µg/mL | 80 µg/mL | > 320 µg/mL |
| H-KRIVQRIKRFLR-OH | > 320 µg/mL | 80 µg/mL | 160 µg/mL | > 320 µg/mL |
| H-KRIVRRIKDFLR-OH | > 320 µg/mL | 320 µg/mL | 320 µg/mL | > 320 µg/mL |
| H-KRIVRRIKKFLR-OH | > 320 µg/mL | 160 µg/mL | 80 µg/mL | > 320 µg/mL |
| H-KRIVRRIKRFLR-OH | > 320 µg/mL | 320 µg/mL | 320 µg/mL | > 320 µg/mL |
| H-LLGDFFRKSKEKIGKEF-OH | > 320 µg/mL | > 320 µg/mL | > 320 µg/mL | > 320 µg/mL |
| H-NLVPRTES-OH | > 320 µg/mL | > 320 µg/mL | > 320 µg/mL | > 320 µg/mL |
